What was measured:
[1] = target: Prostaglandin G/H synthase 1 (Ovis aries) (UniProt P05979); test: Inhibition of COX1
[2] = target: Prostaglandin G/H synthase 1 (Ovis aries) (UniProt P05979); test: Inhibition of COX1 at 100 uM
[3] = target: Prostaglandin G/H synthase 1 (Ovis aries) (UniProt P05979); test: Inhibition of COX1 at 200 uM

Sequence of Prostaglandin G/H synthase 1 (Ovis aries) (P05979 whole entry, looked up): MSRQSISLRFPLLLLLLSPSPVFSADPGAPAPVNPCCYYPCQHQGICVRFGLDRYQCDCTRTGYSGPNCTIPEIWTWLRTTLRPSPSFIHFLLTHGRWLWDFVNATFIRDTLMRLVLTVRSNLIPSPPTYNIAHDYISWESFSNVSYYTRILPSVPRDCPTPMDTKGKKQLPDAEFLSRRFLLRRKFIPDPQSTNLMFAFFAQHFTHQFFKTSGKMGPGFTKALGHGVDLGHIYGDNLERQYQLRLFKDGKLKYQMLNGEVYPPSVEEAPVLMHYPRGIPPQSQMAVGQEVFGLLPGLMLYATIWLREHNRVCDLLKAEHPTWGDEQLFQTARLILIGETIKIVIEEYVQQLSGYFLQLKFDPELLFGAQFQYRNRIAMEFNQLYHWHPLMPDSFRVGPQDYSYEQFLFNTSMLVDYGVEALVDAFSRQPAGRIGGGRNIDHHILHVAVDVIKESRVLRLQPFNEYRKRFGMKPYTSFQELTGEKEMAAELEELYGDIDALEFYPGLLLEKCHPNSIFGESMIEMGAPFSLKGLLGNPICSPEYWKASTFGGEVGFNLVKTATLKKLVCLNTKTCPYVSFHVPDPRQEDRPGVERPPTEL

| SMILES | IC50 [1] [µM] | inhibition [2] [%] | inhibition [3] [%] |
| --- | --- | --- | --- |
| CC1=C/C(=C2\C(=O)N(c3ccccc3)N=C2C)OC(=O)N1c1ccc(Cl)cc1 | 251 | 21.9 |  |
| CC1=C/C(=C2\C(=O)N(c3ccccc3)N=C2C)OC(=O)N1Cc1ccccc1 |  | 18 |  |
| CC1=C/C(=C2\C(=O)N(c3ccccc3)N=C2C)OC(=O)N1c1ccc(Br)cc1 |  | 15 |  |
| COc1ccc(N2C(=O)O/C(=C3/C(=O)N(c4ccccc4)N=C3C)C=C2C)cc1 | 269 | 22.6 |  |
| CC1=C/C(=C2\C(=O)N(c3ccccc3)N=C2C)OC(=O)N1c1ccc(C)cc1 | 91.2 | 54.6 |  |
| CCN1C(=O)O/C(=C2/C(=O)N(c3ccccc3)N=C2C)C=C1C |  | 0 | 19.9 |
| CC1=C/C(=C2\C(=O)N(c3ccccc3)N=C2C)OC(=O)N1c1ccccc1 | 79.4 | 61.8 |  |
| CCCN1C(=O)O/C(=C2/C(=O)N(c3ccccc3)N=C2C)C=C1C |  | 16 |  |

Source: ChEMBL document CHEMBL1143947, “Synthesis and in silico biological activity evaluation of new N-substituted pyrazolo-oxazin-2-one systems” (Bioorg Med Chem, 2008)
